Source: patent US20230374073A1, “DIMERIC MILLA IMMUNOMODULATORS” (Bristol-Myers Squibb Company, priority 2020, published 2023)
Starred links: 1 amine or outer side, 2 acyl side, 3 side chain; linkers in the order of their positions; H or OH if unused. Positions of bridges follow the written chain, without caps; N, C: chain ends. Non-standard residues stand in square brackets, D forms with d. Residues, ends and D or L forms follow the SMILES beside them. Chains are numbered I, II in the order given. Trp(1-CH2COOH) = N[C@@H](Cc1cn(CC(=O)O)c2ccccc12)C(=O)O; X1 = O=C(NC1CCC(CC2CCC(NC(=O)[*:2])CC2)CC1)[*:1]; Hyp = O=C(O)[C@@H]1C[C@@H](O)CN1; NMeNle = CCCC[C@H](NC)C(=O)O; NMeA = CN[C@@H](C)C(=O)O; Dab = NCC[C@H](N)C(=O)O; Dap = NC[C@H](N)C(=O)O

Molecular target: T1, PD-1/PD-L1 (Homo sapiens, UniProt Q9NZQ7)
T1 construct: TVMV protease site (C); made in house; host or cells: HEK293T cells
Test: PD-1/PD-L1 Homogenous Time-Resolved Fluorescence (HTRF) binding assay
Text: The ability of the compounds of formula (I) to bind to PD-L1 was investigated using a PD-1/PD-L1 Homogenous Time-Resolved Fluorescence (HTRF) binding assay.
Homogenous Time-Resolved Fluorescence (HTRF) Binding Assay
The interaction of PD-1 and PD-L1 can be assessed using soluble, purified preparations of the extracellular domains of the two proteins. The PD-1 and PD-L1 protein extracellular domains were expressed as fusion proteins with detection tags, for PD-1, the tag was the Fc portion of Immunoglobulin (PD-1-Ig) and for PD-L1 it was the 6 histidine motif (PD-L1-His). All binding studies were performed in an HTRF assay buffer consisting of dPBS supplemented with 0.1% […] bovine serum albumin and 0.05% (v/v) Tween-20. For the h/PD-L1-His binding assay, inhibitors were pre-incubated with PD-L1-His (10 nM final) for 15 m in 4 μl of assay buffer, followed by addition of PD-1-Ig (20 nM final) in 1 μl of assay buffer and further incubation for 15 m. HTRF detection was achieved using europium crypate-labeled anti-Ig (1 nM final) and allophycocyanin (APC) labeled anti-His (20 nM final). Antibodies were diluted in HTRF detection buffer and 5 μl was dispensed on top of the binding reaction. […]
Table 1 lists the IC50 values for representative examples of this disclosure measured in the PD-1/PD-L1 Homogenous Time-Resolved Fluorescence (HTRF) binding assay.

T1 sequence (Q9NZQ7 18-239): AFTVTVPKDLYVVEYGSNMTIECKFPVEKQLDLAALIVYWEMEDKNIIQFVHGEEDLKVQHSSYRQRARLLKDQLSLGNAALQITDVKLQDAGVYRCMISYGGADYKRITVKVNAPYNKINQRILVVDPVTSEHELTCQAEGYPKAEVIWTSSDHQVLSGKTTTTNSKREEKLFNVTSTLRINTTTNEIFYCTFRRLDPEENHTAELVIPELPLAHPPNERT

## CCCC[C@H]1C(=O)N(C)[C@@H](CCCC)C(=O)N[C@@H](CC(C)C)C(=O)N[C@H](C(=O)NCC(N)=O)CSCC(=O)N[C@@H](Cc2ccc(O)cc2)C(=O)N(C)[C@@H](C)C(=O)N[C@@H](CC(N)=O)C(=O)N2CCC[C@H]2C(=O)N[C@@H](CNC(=O)NC2CCC(CC3CCC(NC(=O)NC[C@@H]4NC(=O)[C@@H]5CCCN5C(=O)[C@H](CC(N)=O)NC(=O)[C@H](C)N(C)C(=O)[C@H](Cc5ccc(O)cc5)NC(=O)CSC[C@@H](C(=O)NCC(N)=O)NC(=O)[C@H](CC(C)C)NC(=O)[C@H](CCCC)N(C)C(=O)[C@H](CCCC)N(C)C(=O)[C@H](Cc5cn(CC(=O)O)c6ccccc56)NC(=O)[C@H](CCN)NC(=O)[C@H](Cc5c[nH]c6ccccc56)NC(=O)[C@@H]5C[C@@H](O)CN5C(=O)[C@H](CC(C)C)NC4=O)CC3)CC2)C(=O)N[C@@H](CC(C)C)C(=O)N2C[C@H](O)C[C@H]2C(=O)N[C@@H](Cc2c[nH]c3ccccc23)C(=O)N[C@@H](CCN)C(=O)N[C@@H](Cc2cn(CC(=O)O)c3ccccc23)C(=O)N1C (stereo partly shown) [Compound 1002] (I: {CH2CO}-Y[NMeA]NP[Dap]L[Hyp]W[Dab][Trp(1-CH2COOH)][NMeNle][NMeNle]LCG-NH2 / II: {CH2CO}-Y[NMeA]NP[Dap]L[Hyp]W[Dab][Trp(1-CH2COOH)][NMeNle][NMeNle]LCG-NH2; linker I:5-II:5 via X1; thioether I:N-I:14, II:N-II:14)
  IC50: 10 nM
